# Measurements reported in PubChem BioAssay (NCI).
# Where “and” joins values, the source holds several entries; their conditions need not be identical. Identical values can stand only once.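 1) Cells in 96-well plates. 2) Compound, 48 h, 5 concentrations. 3) Linear interpolation between surrounding doses. 4) Unreached endpoint = highest concentration. Abbreviation: GI50, concentration required for 50% inhibition of growth. TGI is the concentration that stops growth completely.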
# Test system: SK-MEL-5 melanoma
# Assay: inhibition of tumour cell growth, NCI panel, 48 h
SMILES,TGI [µM],GI50 [µM]
O=C1CCC(O)=C1N=Nc1ccccc1,> 100,
CCN(CC)c1ccc(N=Nc2ccc(-c3nc4ccc[n+](C)c4s3)cc2)cc1,33.9,
NC(=O)NCc1c(C(N)=O)ncn1Cc1ccccc1,> 100,
O=C1CSC(/C(=N/Nc2ccccc2)c2nc3ccccc3[nH]2)=N1,> 100,
C1CCC([PH+](C2CCCCC2)C2CCCCC2[PH+](C2CCCCC2)C2CCCCC2)CC1.O=C(C1[CH-]CCCC1)C1CCCC[N-]1.[Au] (stereo unspecified),0.661,0.252
CN(C)CCN1C(=O)c2ccc3c4c(ccc(c24)C1=O)C(=O)N(CCN=C=S)C3=O,0.235,0.113
O=C(c1ccccc1)C1OC12C(=O)Nc1ccccc12 (stereo unspecified),47.3,
COc1ccc2nc(NC(=O)C(=O)C(C#N)c3ccc([N+](=O)[O-])cc3)sc2c1 (stereo unspecified),> 100,
O=C(O)[C@H](NS(=O)(=O)c1ccc([N+](=O)[O-])cc1)c1ccccc1,> 100,
CC(C)C[C@H](NC(=O)/C=C/Cn1ccc2ccccc2c1=O)B(O)O,6.16,2.36
S=C1OC2CCCC[C@H]2O1 (stereo partly specified),> 100,
O=C1/C(=C/c2cccc([N+](=O)[O-])c2)COc2ccc(Br)cc21,> 100,
COc1cccc2c(=O)c3c(sc12)c(N1CCNCC1)nc1ccccc13,3.09,1.7
COc1c(CCl)cc(-c2cc(=O)c3ccccc3s2)cc1CCl,> 100,
CSC(C1c2ccccc2N(c2ccc(C)cc2)c2[nH]c(=O)n(C)c(=O)c21)S(=O)(=O)c1ccc(C)cc1 (stereo unspecified),> 100,
CCOC(=O)NC(=O)c1cn(CCCOC(=O)CCCCCCCCCCC(=O)OCCCn2cc(C(=O)NC(=O)OCC)c(=O)[nH]c2=O)c(=O)[nH]c1=O,> 100,
COc1cc(/C=C(\C#N)c2ccccc2)cc(OC)c1,> 100,
N#Cc1cccnc1Cl,> 100,
O=C1CC2c3ccccc3CCC2c2ccccc21 (stereo unspecified),31,
CCCCCCCCCCCC(=O)OCC1OC(OC)C(NC(=O)N(CCCl)N=O)C(O)C1O (stereo unspecified),29.9,
COc1ccc(OC)c2c(C(=O)O)c(Cc3ccccc3)ccc12,> 100,
O=C(Nc1c(Cl)cc([N+](=O)[O-])cc1Cl)C(=O)C(C1OC(=O)c2ccccc21)[N+](=O)[O-] (stereo unspecified),> 100,
COc1cc(NC(C)CCCN)c2nccc(C)c2c1 (stereo unspecified),82.8,
C1C[OH+]CC[OH+]CC[OH+]CC[OH+]CC[OH+]1.[Cl-].[V],26.6,7.48
CC(=O)C(=CN1CCN(C(=O)c2ccco2)C1=S)C(C)=O,31.5,16.6
c1ccc(C2Nc3ccccc3C3OCCCC23)cc1 (stereo unspecified),31.5,

# Test system: MDA-MB-435
# Assay: inhibition of tumour cell growth, NCI panel, 48 h
SMILES,TGI [µM],GI50 [µM]
Cn1c2ccccc2c(=O)c2ccc(Cl)cc21,> 10,
CC(CO)(CO)NCCCCn1ccc2c1C(=O)c1c(c(O)c3ccccc3c1O)C2=O,3.56,1.76
O=C(O)C1C(Br)(c2ccccc2)C1(Br)c1ccccc1 (stereo unspecified),> 100,
COc1ccc(CCN2COc3c([C@@H](C)CCC=C(C)C)ccc(C)c3C2)cc1OC,10.9,3.11
C1CCC([PH+](C2CCCCC2)C2CCCCC2[PH+](C2CCCCC2)C2CCCCC2)CC1.O=C(C1[CH-]CCCC1)C1CCCC[N-]1.[Au] (stereo unspecified),0.704,0.229
CN(C)CCN1C(=O)c2ccc3c4c(ccc(c24)C1=O)C(=O)N(CCN=C=S)C3=O,0.249,0.0585
CC(C)C[C@H](NC(=O)/C=C/Cn1ccc2ccccc2c1=O)B(O)O,2.96,1.48
COc1cccc2c(=O)c3c(sc12)c(N1CCNCC1)nc1ccccc13,3.23,1.76
COc1c(CCl)cc(-c2cc(=O)c3ccccc3s2)cc1CCl,> 100,
O=C1CC2c3ccccc3CCC2c2ccccc21 (stereo unspecified),98.6,
CN(CCC#N)c1ccc(/C=C(\C#N)c2ccc(Br)cc2)cc1,> 100,1.97
COc1cc(NC(C)CCCN)c2nccc(C)c2c1 (stereo unspecified),30.4,
CCCCCCCCCCCCCCCCCCOc1ccccc1CC(=O)OCC[N+]1(C)CCCC1,3.31,1.73
CC(=O)C(=CN1CCN(C(=O)c2ccco2)C1=S)C(C)=O,49,12.6

# Test system: CCRF-CEM leukemia
# Assay: inhibition of tumour cell growth, NCI panel, 48 h
SMILES,TGI,GI50 [µM]
O=C1[C@@H]2C(c3ccccc3F)=NO[C@@H]2C(=O)N1c1ccc(Cc2ccc(N3C(=O)[C@H]4C(c5ccccc5F)=NO[C@H]4C3=O)cc2)cc1,> 70.8 µM,
C=CCc1ccc(Oc2cc(CC=C)c3c(c2O)O[C@@H](CO)[C@H]3c2ccc(O)c(-c3cc(CC=C)ccc3O)c2)cc1,46.6 µM,
Cn1c2ccccc2c(=O)c2ccc(Cl)cc21,> 10 µM,
O=C(NCO)NCOCn1c(=O)n(CO)c(=O)n(CO)c1=O,23.6 µM,
Clc1ccc2c(c1)-c1c3c(nn1-c1ccccc1)-c1ccccc1SC3O2 (stereo unspecified),> 100 µM,
COc1ccc(CCN2COc3c([C@@H](C)CCC=C(C)C)ccc(C)c3C2)cc1OC,21.1 µM,3.49
O=C1OC2CCCC[C@@H]2C2C[C@]34CCCCC3[C@@H](C(=O)O4)C12 (stereo partly specified),> 100 µM,
CN(C)c1cc[c]([Sn]([c]2ccc(N(C)C)cc2)([c]2ccc(N(C)C)cc2)[c]2ccc(N(C)C)cc2)cc1,5.72 µM,1.26
COc1cc(/C=C/c2cc(/C=C/c3ccc(O)c(OC)c3)n(C(=O)Nc3ccc(C)cc3C)n2)ccc1O,> 100 µM,0.232
CCCSc1nc(COC(=O)NC)c(COC(=O)NC)n1C,86.1 µM and > 64.3 µM,
O=C1CCC(O)=C1N=Nc1ccccc1,> 100 µM,
CCN(CC)c1ccc(N=Nc2ccc(-c3nc4ccc[n+](C)c4s3)cc2)cc1,> 100 µM,
NC(=O)NCc1c(C(N)=O)ncn1Cc1ccccc1,> 100 µM,
O=C1CSC(/C(=N/Nc2ccccc2)c2nc3ccccc3[nH]2)=N1,53.6 µM,
O=C(c1ccccc1)C1OC12C(=O)Nc1ccccc12 (stereo unspecified),25.2 µM,
O=C(O)[C@H](NS(=O)(=O)c1ccc([N+](=O)[O-])cc1)c1ccccc1,> 100 µM,
S=C1OC2CCCC[C@H]2O1 (stereo partly specified),> 100 µM,
O=C1/C(=C/c2cccc([N+](=O)[O-])c2)COc2ccc(Br)cc21,> 100 µM,
CSC(C1c2ccccc2N(c2ccc(C)cc2)c2[nH]c(=O)n(C)c(=O)c21)S(=O)(=O)c1ccc(C)cc1 (stereo unspecified),> 100 µM,
CCOC(=O)NC(=O)c1cn(CCCOC(=O)CCCCCCCCCCC(=O)OCCCn2cc(C(=O)NC(=O)OCC)c(=O)[nH]c2=O)c(=O)[nH]c1=O,> 100 µM,
COc1cc(/C=C(\C#N)c2ccccc2)cc(OC)c1,> 100 µM,
N#Cc1cccnc1Cl,> 100 µM,
CCCCCCCCCCCC(=O)OCC1OC(OC)C(NC(=O)N(CCCl)N=O)C(O)C1O (stereo unspecified),13.8 µM,
C=CC/C=C/C/C=C/CCCCCCCc1cccc(O)c1C(=O)O,> 100 µM,
O=C(Nc1c(Cl)cc([N+](=O)[O-])cc1Cl)C(=O)C(C1OC(=O)c2ccccc21)[N+](=O)[O-] (stereo unspecified),> 100 µM,
Cc1c(C(=O)/C=C/c2ccccc2)[n+](=O)c2ccccc2n1[O-],74.7 µM,
N#CC1CC2(C1)OCCS2 (stereo unspecified),> 100 µM,
C1C[OH+]CC[OH+]CC[OH+]CC[OH+]CC[OH+]1.[Cl-].[V],> 100 µM,> 100
c1ccc(C2Nc3ccccc3C3OCCCC23)cc1 (stereo unspecified),84.8 µM,

# Test system: HCC-2998 colon
# Assay: inhibition of tumour cell growth, NCI panel, 48 h
SMILES,TGI [µM],GI50 [µM]
O=C1[C@@H]2C(c3ccccc3F)=NO[C@@H]2C(=O)N1c1ccc(Cc2ccc(N3C(=O)[C@H]4C(c5ccccc5F)=NO[C@H]4C3=O)cc2)cc1,> 100,
C=CCc1ccc(Oc2cc(CC=C)c3c(c2O)O[C@@H](CO)[C@H]3c2ccc(O)c(-c3cc(CC=C)ccc3O)c2)cc1,> 100,
Cn1c2ccccc2c(=O)c2ccc(Cl)cc21,> 10,
CC(CO)(CO)NCCCCn1ccc2c1C(=O)c1c(c(O)c3ccccc3c1O)C2=O,20.9,6.2
O=C(NCO)NCOCn1c(=O)n(CO)c(=O)n(CO)c1=O,> 100,
Clc1ccc2c(c1)-c1c3c(nn1-c1ccccc1)-c1ccccc1SC3O2 (stereo unspecified),> 100,
O=C(O)C1C(Br)(c2ccccc2)C1(Br)c1ccccc1 (stereo unspecified),53.7,
COc1ccc(CCN2COc3c([C@@H](C)CCC=C(C)C)ccc(C)c3C2)cc1OC,2.96,1.59
O=C1OC2CCCC[C@@H]2C2C[C@]34CCCCC3[C@@H](C(=O)O4)C12 (stereo partly specified),> 100,
CN(C)c1cc[c]([Sn]([c]2ccc(N(C)C)cc2)([c]2ccc(N(C)C)cc2)[c]2ccc(N(C)C)cc2)cc1,18.9,4.32
